This note sets out measurements from ChEMBL document CHEMBL5291721, “A preclinical secondary pharmacology resource illuminates target-adverse drug reaction associations of marketed drugs” (Nat Commun, 2023).

One experiment has as its target Acetylcholinesterase (Homo sapiens, UniProt P22303). Type of experiment: functional.
In experiment [1] the target is T1, Alpha-1A adrenergic receptor (Homo sapiens, UniProt P35348).
T1 sequence (P35348 whole entry): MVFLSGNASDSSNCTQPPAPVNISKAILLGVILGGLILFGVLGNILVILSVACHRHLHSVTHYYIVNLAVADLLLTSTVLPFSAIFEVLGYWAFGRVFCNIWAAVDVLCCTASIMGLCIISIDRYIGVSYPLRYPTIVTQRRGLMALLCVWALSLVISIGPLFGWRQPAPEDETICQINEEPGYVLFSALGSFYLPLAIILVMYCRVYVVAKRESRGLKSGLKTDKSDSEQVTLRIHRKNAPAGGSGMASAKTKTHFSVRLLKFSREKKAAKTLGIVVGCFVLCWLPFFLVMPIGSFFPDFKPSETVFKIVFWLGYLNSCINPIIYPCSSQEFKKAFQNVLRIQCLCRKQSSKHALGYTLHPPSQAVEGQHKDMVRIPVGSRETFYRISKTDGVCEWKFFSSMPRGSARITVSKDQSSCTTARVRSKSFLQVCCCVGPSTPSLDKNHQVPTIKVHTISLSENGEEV
The class given is functional, cell-based.

The target in experiment [2] is T1, Alpha-1A adrenergic receptor. The class given is functional, cell-based. This is another data set of the same source.
The target of experiment [3] is Beta-2 adrenergic receptor (Homo sapiens, UniProt P07550). The class given is functional, cell-based.
Chain of Beta-2 adrenergic receptor (P07550 whole entry): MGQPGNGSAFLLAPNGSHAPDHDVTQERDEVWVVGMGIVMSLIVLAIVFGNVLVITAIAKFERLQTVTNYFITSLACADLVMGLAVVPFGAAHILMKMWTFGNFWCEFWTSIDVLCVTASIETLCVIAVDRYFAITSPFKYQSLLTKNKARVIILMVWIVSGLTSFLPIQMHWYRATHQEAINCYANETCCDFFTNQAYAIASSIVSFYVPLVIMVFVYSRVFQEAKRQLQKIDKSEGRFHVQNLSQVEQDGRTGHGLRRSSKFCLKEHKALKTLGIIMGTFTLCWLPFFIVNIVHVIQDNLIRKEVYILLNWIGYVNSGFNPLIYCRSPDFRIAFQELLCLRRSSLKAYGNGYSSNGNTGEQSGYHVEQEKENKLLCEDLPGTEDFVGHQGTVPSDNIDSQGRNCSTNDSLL
In experiment [4] the target is Muscarinic acetylcholine receptor M3 (Homo sapiens, UniProt P20309).
Chain of Muscarinic acetylcholine receptor M3 (P20309 whole entry): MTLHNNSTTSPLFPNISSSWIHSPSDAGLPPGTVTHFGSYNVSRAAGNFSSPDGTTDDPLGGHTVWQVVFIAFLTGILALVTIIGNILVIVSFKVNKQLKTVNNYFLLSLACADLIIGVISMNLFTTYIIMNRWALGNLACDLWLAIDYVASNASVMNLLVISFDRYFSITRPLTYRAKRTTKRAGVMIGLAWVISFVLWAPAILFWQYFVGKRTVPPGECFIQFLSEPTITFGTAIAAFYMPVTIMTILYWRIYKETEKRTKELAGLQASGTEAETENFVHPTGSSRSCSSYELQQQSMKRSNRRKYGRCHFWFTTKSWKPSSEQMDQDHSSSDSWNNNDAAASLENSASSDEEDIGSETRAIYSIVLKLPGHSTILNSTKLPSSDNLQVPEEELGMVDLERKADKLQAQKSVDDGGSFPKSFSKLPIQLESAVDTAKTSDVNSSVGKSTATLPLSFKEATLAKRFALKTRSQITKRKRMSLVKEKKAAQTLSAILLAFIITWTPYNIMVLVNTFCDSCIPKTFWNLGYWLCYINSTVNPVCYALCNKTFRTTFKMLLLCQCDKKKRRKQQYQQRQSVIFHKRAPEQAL
Experiment [5] deals with T2, Cannabinoid receptor 1 (Homo sapiens, UniProt P21554). Type of experiment: functional, cell-based.
T2 sequence (P21554 whole entry): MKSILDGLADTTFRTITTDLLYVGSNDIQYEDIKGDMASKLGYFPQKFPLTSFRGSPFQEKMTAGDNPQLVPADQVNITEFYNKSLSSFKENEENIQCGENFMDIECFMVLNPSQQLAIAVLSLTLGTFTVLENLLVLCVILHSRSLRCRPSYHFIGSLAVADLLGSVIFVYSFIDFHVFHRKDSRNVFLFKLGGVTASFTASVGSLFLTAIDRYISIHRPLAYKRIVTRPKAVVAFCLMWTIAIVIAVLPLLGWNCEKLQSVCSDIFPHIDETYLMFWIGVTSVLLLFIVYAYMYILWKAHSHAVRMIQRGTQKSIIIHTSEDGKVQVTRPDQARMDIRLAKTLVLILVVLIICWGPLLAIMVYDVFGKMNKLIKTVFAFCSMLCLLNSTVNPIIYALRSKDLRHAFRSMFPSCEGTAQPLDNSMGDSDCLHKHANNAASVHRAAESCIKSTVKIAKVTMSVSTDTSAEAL
Experiment [6] concerns the target T2, Cannabinoid receptor 1. The class given is functional, cell-based. The source holds these as a separate data set.
Another experiment concerns the target Histamine H1 receptor (Homo sapiens, UniProt P35367).
A further experiment concerns the target Histamine H2 receptor (Homo sapiens, UniProt P25021). Type of experiment: functional, cell-based.
In experiment [7] the target is T3, 5-hydroxytryptamine receptor 2A (Homo sapiens, UniProt P28223). The class given is functional, cell-based.
Experiment [8] addresses T3, 5-hydroxytryptamine receptor 2A. The class given is functional, cell-based. This is another data set of the same source.
For experiment [9], the target named is T4, Amine oxidase [flavin-containing] A (Homo sapiens, UniProt P21397).
T4 sequence (P21397 whole entry): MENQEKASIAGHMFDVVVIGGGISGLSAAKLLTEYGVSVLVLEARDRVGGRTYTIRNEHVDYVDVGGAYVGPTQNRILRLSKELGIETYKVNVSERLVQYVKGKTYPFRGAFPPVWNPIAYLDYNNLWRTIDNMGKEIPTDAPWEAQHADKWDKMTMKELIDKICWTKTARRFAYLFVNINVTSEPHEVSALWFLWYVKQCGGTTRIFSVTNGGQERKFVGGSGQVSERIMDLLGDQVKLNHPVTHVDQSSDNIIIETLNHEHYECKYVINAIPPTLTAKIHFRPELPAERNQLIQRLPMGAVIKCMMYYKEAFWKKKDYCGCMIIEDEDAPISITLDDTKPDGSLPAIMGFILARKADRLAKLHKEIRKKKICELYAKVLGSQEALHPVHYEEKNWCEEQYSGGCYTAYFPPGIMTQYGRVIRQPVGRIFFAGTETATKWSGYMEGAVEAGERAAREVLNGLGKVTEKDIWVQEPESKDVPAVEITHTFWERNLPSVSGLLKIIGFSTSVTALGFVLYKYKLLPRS
Type of experiment: functional.

For the next experiment, the target named is Melanocortin receptor 4 (Homo sapiens, UniProt P32245).
In the next experiment the target is T5, Glucocorticoid receptor (Homo sapiens, UniProt P04150).
T5 sequence (P04150 whole entry): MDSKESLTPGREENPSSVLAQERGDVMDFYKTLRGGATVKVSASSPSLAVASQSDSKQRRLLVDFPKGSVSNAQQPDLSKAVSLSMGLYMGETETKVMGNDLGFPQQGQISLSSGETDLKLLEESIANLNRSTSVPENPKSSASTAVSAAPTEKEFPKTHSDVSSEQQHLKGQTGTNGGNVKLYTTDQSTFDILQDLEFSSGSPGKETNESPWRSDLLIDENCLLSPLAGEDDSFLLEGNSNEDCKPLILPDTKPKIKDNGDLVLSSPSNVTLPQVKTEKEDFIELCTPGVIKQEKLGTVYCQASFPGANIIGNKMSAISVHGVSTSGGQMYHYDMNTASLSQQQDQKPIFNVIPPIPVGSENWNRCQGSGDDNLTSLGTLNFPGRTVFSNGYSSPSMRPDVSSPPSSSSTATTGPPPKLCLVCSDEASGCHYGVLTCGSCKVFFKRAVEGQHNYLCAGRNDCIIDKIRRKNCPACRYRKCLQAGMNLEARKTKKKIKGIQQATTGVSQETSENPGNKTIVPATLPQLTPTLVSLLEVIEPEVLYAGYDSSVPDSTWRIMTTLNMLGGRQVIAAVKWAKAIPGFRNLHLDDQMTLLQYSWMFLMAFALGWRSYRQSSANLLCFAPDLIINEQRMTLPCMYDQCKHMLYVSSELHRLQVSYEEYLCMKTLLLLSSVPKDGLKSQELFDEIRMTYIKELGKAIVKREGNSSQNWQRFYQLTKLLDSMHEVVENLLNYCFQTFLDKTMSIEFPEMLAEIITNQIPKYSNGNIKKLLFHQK

Experiment [10] has as its target Sodium-dependent dopamine transporter (Homo sapiens, UniProt Q01959).
The target in experiment [11] is T1, Alpha-1A adrenergic receptor. Type of experiment: functional, cell-based. The source holds these as a separate data set.
Experiment [12] concerns the target Gamma-aminobutyric acid receptor subunit alpha-1/alpha-2/beta-2/gamma-2 (Homo sapiens, UniProt P14867+P18507+P47869+P47870). Type of experiment: functional, cell-based.
Further: assay procedure not described here.

Chain of Histamine H2 receptor (P25021 whole entry): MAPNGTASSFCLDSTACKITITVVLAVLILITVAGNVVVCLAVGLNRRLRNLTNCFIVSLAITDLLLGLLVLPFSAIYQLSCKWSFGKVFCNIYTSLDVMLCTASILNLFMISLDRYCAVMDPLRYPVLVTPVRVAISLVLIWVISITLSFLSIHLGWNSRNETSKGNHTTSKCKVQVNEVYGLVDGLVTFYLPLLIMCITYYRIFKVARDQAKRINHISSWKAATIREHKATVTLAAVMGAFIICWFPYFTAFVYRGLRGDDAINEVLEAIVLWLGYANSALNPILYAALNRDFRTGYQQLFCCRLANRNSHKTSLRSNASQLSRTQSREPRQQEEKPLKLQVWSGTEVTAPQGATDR
Chain of Gamma-aminobutyric acid receptor subunit alpha-1/alpha-2/beta-2/gamma-2 (P14867 whole entry): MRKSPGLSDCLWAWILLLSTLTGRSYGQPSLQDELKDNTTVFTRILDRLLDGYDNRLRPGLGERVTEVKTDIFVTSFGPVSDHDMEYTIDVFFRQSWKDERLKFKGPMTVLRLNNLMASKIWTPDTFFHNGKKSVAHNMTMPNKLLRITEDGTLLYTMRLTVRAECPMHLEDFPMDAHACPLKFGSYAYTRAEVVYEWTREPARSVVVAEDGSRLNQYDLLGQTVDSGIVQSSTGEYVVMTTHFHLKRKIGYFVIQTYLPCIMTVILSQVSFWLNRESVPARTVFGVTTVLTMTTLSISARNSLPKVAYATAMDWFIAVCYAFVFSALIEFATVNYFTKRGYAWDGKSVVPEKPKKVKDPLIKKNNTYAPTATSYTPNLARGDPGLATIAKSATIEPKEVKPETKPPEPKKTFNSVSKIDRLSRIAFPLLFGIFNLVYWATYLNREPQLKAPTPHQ
Chain of Gamma-aminobutyric acid receptor subunit alpha-1/alpha-2/beta-2/gamma-2 (P47870 whole entry): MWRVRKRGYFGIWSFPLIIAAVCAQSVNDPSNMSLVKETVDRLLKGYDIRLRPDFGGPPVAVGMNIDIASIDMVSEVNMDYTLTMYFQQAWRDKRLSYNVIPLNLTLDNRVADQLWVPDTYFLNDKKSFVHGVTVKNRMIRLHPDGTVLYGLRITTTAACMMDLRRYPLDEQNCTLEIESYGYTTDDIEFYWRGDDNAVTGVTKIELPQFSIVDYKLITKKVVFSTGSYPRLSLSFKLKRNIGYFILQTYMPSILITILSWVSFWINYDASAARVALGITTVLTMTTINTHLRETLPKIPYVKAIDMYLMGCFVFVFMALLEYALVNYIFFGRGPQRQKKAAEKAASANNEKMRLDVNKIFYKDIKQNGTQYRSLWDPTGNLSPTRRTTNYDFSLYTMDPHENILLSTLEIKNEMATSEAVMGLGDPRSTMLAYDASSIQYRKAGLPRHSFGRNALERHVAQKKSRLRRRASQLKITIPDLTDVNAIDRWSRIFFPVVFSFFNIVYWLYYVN
Chain of Gamma-aminobutyric acid receptor subunit alpha-1/alpha-2/beta-2/gamma-2 (P18507 whole entry): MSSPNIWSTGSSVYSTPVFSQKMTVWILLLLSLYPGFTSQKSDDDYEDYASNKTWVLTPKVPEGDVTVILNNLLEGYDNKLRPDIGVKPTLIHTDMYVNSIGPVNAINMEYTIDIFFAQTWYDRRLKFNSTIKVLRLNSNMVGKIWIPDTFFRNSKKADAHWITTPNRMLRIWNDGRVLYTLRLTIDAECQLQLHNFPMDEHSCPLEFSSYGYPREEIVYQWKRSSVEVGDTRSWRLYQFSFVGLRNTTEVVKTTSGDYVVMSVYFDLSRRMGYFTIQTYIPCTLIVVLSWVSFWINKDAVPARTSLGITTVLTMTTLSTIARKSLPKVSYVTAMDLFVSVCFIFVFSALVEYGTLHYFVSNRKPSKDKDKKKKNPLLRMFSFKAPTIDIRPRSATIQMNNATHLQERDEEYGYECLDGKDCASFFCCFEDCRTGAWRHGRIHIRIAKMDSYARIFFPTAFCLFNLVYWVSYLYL
Chain of Gamma-aminobutyric acid receptor subunit alpha-1/alpha-2/beta-2/gamma-2 (P47869 whole entry): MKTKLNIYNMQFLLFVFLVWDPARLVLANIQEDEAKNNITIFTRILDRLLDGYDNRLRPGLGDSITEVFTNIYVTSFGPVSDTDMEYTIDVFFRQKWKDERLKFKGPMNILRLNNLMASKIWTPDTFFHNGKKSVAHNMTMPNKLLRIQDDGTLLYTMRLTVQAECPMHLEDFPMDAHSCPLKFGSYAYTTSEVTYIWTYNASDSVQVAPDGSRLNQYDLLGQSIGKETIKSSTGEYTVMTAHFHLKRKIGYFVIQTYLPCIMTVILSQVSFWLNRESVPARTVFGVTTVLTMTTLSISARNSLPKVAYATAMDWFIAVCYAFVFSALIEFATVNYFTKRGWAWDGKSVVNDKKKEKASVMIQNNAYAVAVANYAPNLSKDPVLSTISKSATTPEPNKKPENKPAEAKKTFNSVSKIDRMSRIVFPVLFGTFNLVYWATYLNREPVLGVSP
Chain of Acetylcholinesterase (P22303 whole entry): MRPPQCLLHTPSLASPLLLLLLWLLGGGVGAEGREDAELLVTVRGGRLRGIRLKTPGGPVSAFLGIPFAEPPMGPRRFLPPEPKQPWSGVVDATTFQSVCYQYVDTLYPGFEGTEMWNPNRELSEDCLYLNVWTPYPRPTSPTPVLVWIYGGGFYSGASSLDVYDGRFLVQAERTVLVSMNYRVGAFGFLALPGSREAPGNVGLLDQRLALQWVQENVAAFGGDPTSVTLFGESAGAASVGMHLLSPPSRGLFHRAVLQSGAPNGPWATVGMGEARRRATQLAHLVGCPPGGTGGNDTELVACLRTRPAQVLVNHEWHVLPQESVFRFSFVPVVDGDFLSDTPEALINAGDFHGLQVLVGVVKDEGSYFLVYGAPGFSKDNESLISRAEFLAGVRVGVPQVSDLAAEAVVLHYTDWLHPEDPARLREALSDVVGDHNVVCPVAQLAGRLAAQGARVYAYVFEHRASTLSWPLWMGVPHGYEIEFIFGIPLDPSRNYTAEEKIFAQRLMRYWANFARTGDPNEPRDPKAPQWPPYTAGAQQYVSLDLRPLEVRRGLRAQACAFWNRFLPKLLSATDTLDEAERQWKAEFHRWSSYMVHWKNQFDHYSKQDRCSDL
Chain of Sodium-dependent dopamine transporter (Q01959 whole entry): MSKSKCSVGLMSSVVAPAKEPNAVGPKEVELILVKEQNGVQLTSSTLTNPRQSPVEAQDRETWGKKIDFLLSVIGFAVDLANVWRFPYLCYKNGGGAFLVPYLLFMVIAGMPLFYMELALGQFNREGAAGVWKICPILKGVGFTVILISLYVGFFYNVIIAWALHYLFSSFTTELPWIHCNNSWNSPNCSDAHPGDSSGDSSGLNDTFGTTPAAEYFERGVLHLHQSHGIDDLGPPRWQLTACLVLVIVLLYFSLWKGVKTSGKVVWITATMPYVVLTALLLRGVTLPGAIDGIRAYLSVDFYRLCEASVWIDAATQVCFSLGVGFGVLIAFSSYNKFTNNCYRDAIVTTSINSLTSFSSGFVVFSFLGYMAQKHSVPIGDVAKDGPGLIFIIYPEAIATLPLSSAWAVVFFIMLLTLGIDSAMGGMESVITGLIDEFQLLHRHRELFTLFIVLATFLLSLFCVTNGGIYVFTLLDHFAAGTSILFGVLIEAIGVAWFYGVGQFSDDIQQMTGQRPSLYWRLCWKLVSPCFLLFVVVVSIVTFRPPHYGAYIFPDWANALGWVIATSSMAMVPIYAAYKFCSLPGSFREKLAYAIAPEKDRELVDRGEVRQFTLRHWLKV

For `CC(C(=O)O)c1ccc(N2CC=CC2)c(Cl)c1` (stereo not given) [PIRPROFEN], the AC50 at Acetylcholinesterase is > 30 µM; in [1], > 30 µM; in experiment [2], > 30 µM; in experiment [3], > 30 µM; in experiment [4], > 10 µM; on Cannabinoid receptor 1 [5], > 30 µM. Besides, the AC50 was > 30 µM at Cannabinoid receptor 1 [6]; > 10 µM on Histamine H1 receptor; > 10 µM at Histamine H2 receptor; > 30 µM in experiment [7]; > 30 µM in experiment [8]; > 30 µM in experiment [9]. Besides, the AC50 (at Melanocortin receptor 4; at Glucocorticoid receptor; in [10]; in [11]) was > 30 µM throughout.

Take `Oc1ncnc2[nH]ncc12` [ALLOPURINOL]: the AC50 (on Acetylcholinesterase; in experiment [1]; in experiment [2]; in [3]; on Cannabinoid receptor 1 [5]; at Cannabinoid receptor 1 [6]) was > 30 µM each time. Besides, the AC50 was > 10 µM at Histamine H2 receptor; > 30 µM in [9]; > 30 µM on Melanocortin receptor 4; > 30 µM at Glucocorticoid receptor; > 30 µM in [10]; > 30 µM in experiment [11].

Regarding `CC(=O)OCC(=O)[C@@]1(O)CC[C@H]2[C@@H]3CCC4=CC(=O)CC[C@]4(C)[C@H]3C(=O)C[C@@]21C` [CORTISONE ACETATE], the AC50 (in [1]; in experiment [3]; on Cannabinoid receptor 1 [5]; at Cannabinoid receptor 1 [6]; in experiment [12]; at Histamine H2 receptor) was > 30 µM each time. Moreover, the AC50 in experiment [11] is > 30 µM.

On to `CCN(CC)CCNC(=O)c1cc(Cl)c(N)cc1OC` [METOCLOPRAMIDE], for which the AC50 in experiment [1] was > 30 µM; in experiment [3], > 30 µM; at Cannabinoid receptor 1 [5] it was > 30 µM; at Cannabinoid receptor 1 [6], > 30 µM; at Histamine H2 receptor it was > 10 µM; at Melanocortin receptor 4, > 30 µM. Besides, the AC50 in experiment [11] was > 30 µM.

As to `NC(N)=Nc1nc(CSCCC(N)=NS(N)(=O)=O)cs1` [FAMOTIDINE], the AC50 in [1] is > 30 µM; in [3], > 30 µM; at Cannabinoid receptor 1 [5], > 30 µM; on Cannabinoid receptor 1 [6], > 30 µM; on Histamine H2 receptor, > 10 µM; at Melanocortin receptor 4, > 30 µM. Besides, the AC50 (on Glucocorticoid receptor; in experiment [11]) was > 30 µM in each case.

In the case of `CC(N)Cc1ccccc1` (stereo not given) [AMPHETAMINE], the AC50 is > 30 µM in [1]; > 30 µM in [4]; > 30 µM at Cannabinoid receptor 1 [5]; > 30 µM on Cannabinoid receptor 1 [6]; > 30 µM in experiment [12]; > 10 µM on Histamine H2 receptor. The AC50 (in [7]; in [8]; on Melanocortin receptor 4; at Glucocorticoid receptor; in experiment [11]) was > 30 µM in each case.

As for `Nc1nc(N)c2nc(-c3ccccc3)c(N)nc2n1`, the concentration at half-maximal activity (AC50) (on Acetylcholinesterase; in [1]; in [2]; in experiment [3]; at Cannabinoid receptor 1 [5]; on Cannabinoid receptor 1 [6]) was > 30 µM throughout. The AC50 at Histamine H2 receptor was > 30 µM; in experiment [9] it was > 30 µM; on Melanocortin receptor 4 it was > 10 µM; on Glucocorticoid receptor it was > 30 µM; in experiment [10], > 30 µM; in experiment [11] it was > 30 µM.

In the case of `COc1cc2c(cc1OC)C(=O)C(CC1CCN(Cc3ccccc3)CC1)C2` (stereo not given) [DONEPEZIL], the AC50 is > 30 µM in [3]; > 30 µM in experiment [4]; > 30 µM at Cannabinoid receptor 1 [5]; > 30 µM on Cannabinoid receptor 1 [6]; > 10 µM at Histamine H1 receptor; > 10 µM at Histamine H2 receptor. For the same compound, the AC50 in [7] is > 30 µM; in experiment [8] it was > 30 µM; on Melanocortin receptor 4 it was > 30 µM; in experiment [10] it was 9.78 µM.

With `C[C@H]1O[C@H](O[C@H]2[C@H](O)[C@@H](O)[C@@H](O[C@H]3[C@H](O)[C@@H](O)C(O)O[C@@H]3CO)O[C@@H]2CO)[C@H](O)[C@@H](O)[C@@H]1N[C@H]1C=C(CO)[C@@H](O)[C@H](O)[C@H]1O` (stereo not given in full) [ACARBOSE], the half-maximal activity concentration (AC50) is > 30 µM at Acetylcholinesterase; > 30 µM in experiment [1]; > 30 µM in experiment [2]; > 30 µM in [3]; > 30 µM at Cannabinoid receptor 1 [5]; 30 µM at Cannabinoid receptor 1 [6]. The AC50 on Histamine H2 receptor was > 10 µM; in experiment [9], > 30 µM; at Melanocortin receptor 4, > 30 µM; at Glucocorticoid receptor, > 30 µM; in experiment [10], > 30 µM; in experiment [11], > 30 µM.

On to `Cc1cccc(C)c1OCC(C)N` (stereo not given) [MEXILETINE], for which the AC50 (in [1]; in experiment [3]; on Cannabinoid receptor 1 [5]; on Cannabinoid receptor 1 [6]; at Histamine H2 receptor; in [11]) was > 30 µM each time.

For the compound `CC(C)NNC(=O)c1ccncc1` [IPRONIAZID], the AC50 (in [1]; in experiment [3]; at Cannabinoid receptor 1 [5]; on Cannabinoid receptor 1 [6]; in experiment [12]; in experiment [11]) was > 30 µM in each case.

Take `CN1CCCC(n2nc(Cc3ccc(Cl)cc3)c3ccccc3c2=O)CC1` (stereo not given) [AZELASTINE]: the AC50 (in experiment [1]; in experiment [3]; in experiment [4]; at Cannabinoid receptor 1 [5]; on Cannabinoid receptor 1 [6]; in experiment [12]) was > 30 µM in each case. The results for the concentration at half-maximal activity (AC50) in experiment [7], in experiment [8] and in [11] were > 30 µM, 4.6 µM and 1.1 µM, respectively.

As for `CCC[C@@H]1C[C@@H](C(=O)N[C@@H]([C@H]2O[C@H](SC)[C@H](O)[C@@H](O)[C@H]2O)[C@H](C)Cl)N(C)C1` [CLINDAMYCIN], the AC50 in [1] is > 30 µM; in [3], > 30 µM; at Cannabinoid receptor 1 [5], > 30 µM; at Cannabinoid receptor 1 [6], > 30 µM; at Histamine H2 receptor it was > 10 µM; at Melanocortin receptor 4, > 30 µM. Further, the AC50 in experiment [11] was > 30 µM.

Turning to `CC[C@H](C)C(=O)O[C@H]1C[C@H](O)C=C2C=C[C@H](C)[C@H](CC[C@@H](O)C[C@@H](O)CC(=O)O)[C@H]21` [PRAVASTATIN], the AC50 in [1] was > 30 µM; in experiment [3], > 30 µM; at Cannabinoid receptor 1 [5], > 30 µM; at Cannabinoid receptor 1 [6] it was > 30 µM; in [12], > 30 µM; on Histamine H2 receptor, > 10 µM. The AC50 in experiment [11] was > 30 µM.

In general, AC50 refers to the concentration giving half of the maximal activity seen.
